From BigSolDB 2.1

C[N+](C)(C)CC(=O)[O-]
Conditions | solubility (mole fraction)
in DMSO, 288.51 K | 0.001
in DMSO, 292.73 K | 0.00116
in DMSO, 298.34 K | 0.00139
in DMSO, 305.16 K | 0.00172
in DMSO, 308.53 K | 0.0019
in DMSO, 313.2 K | 0.00219
in DMSO, 318.16 K | 0.00253
in DMSO, 322.88 K | 0.00291
in DMSO, 327.87 K | 0.00334
in DMSO, 333.58 K | 0.00391
in acetic acid, 292.83 K | 0.23
in acetic acid, 297.84 K | 0.239
in acetic acid, 302.28 K | 0.252
in acetic acid, 308.31 K | 0.268
in acetic acid, 312.79 K | 0.279
in acetic acid, 317.76 K | 0.298
in acetic acid, 322.58 K | 0.306
in acetic acid, 328.87 K | 0.327
in acetic acid, 333.12 K | 0.344
in ethylene glycol, 283.42 K | 0.102
in ethylene glycol, 288.53 K | 0.109
in ethylene glycol, 292.46 K | 0.117
in ethylene glycol, 298.03 K | 0.125
in ethylene glycol, 303.87 K | 0.137
in ethylene glycol, 308.52 K | 0.145
in ethylene glycol, 314.59 K | 0.161
in ethylene glycol, 318.19 K | 0.167
in ethylene glycol, 323.98 K | 0.183
in ethylene glycol, 328.33 K | 0.192
in isopentanol, 286.47 K | 0.000166
in isopentanol, 289.13 K | 0.000185
in isopentanol, 293.93 K | 0.000225
in isopentanol, 298.25 K | 0.000269
in isopentanol, 302.72 K | 0.000316
in isopentanol, 307.37 K | 0.000378
in isopentanol, 314.06 K | 0.000477
in isopentanol, 318.23 K | 0.000556
in isopentanol, 322.6 K | 0.000646
in n-pentanol, 285.88 K | 0.000216
in n-pentanol, 289.5 K | 0.000249
in n-pentanol, 294.44 K | 0.000301
in n-pentanol, 299.59 K | 0.000368
in n-pentanol, 304.38 K | 0.000436
in n-pentanol, 309.45 K | 0.000523
in n-pentanol, 313.8 K | 0.000609
in n-pentanol, 318.18 K | 0.000705
in n-pentanol, 323.02 K | 0.000822
